“And” between values parts separate entries of the source, which are not always exact repeats. Equal values may be shown once. Inconclusive results and toxic doses are left out. How the source made its calls: active means survival T/C of 150% or more; inactive means T/C below 125% in these data.
Test system: BDF1 mice, P388 leukemia ip, median survival T/C
Test: NCI In Vivo Anticancer Drug Screen. Data for tumor model P388 Leukemia (intraperitoneal) in B6D2F1 (BDF1) mice
Details: endpoint: median survival time, higher = longer survival
Summary of the method: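 Read-out is survival of treated animals expressed relative to the vehicle group, as a T/C ratio.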

[1] = dose: 100.0 mg/kg/injection, schedule: Q04DX003 (ip), vehicle: saline with Tween-80
[2] = dose: 200.0 mg/kg/injection, schedule: Q04DX003 (ip), vehicle: saline with Tween-80
[3] = dose: 400.0 mg/kg/injection, schedule: Q04DX003 (ip), vehicle: saline with Tween-80
[4] = dose: 100.0 mg/kg/injection, schedule: Q04DX003 (ip), vehicle: saline
[5] = dose: 200.0 mg/kg/injection, schedule: Q04DX003 (ip), vehicle: saline
[6] = dose: 400.0 mg/kg/injection, schedule: Q04DX003 (ip), vehicle: saline
[7] = dose: 200.0 mg/kg/injection, schedule: Q01DX001 (ip), vehicle: saline with Tween-80
[8] = dose: 400.0 mg/kg/injection, schedule: Q01DX001 (ip), vehicle: saline with Tween-80
[9] = dose: 25.0 mg/kg/injection, schedule: Q01DX009 (ip), vehicle: saline
[10] = dose: 50.0 mg/kg/injection, schedule: Q01DX009 (ip), vehicle: saline
[11] = dose: 25.0 mg/kg/injection, schedule: Q01DX009 (ip), vehicle: saline with Tween-80
[12] = dose: 50.0 mg/kg/injection, schedule: Q01DX009 (ip), vehicle: saline with Tween-80
[13] = dose: 12.5 mg/kg/injection, schedule: Q01DX009 (ip), vehicle: saline
[14] = dose: 100.0 mg/kg/injection, schedule: Q01DX009 (ip), vehicle: saline with Tween-80
[15] = dose: 200.0 mg/kg/injection, schedule: Q01DX009 (ip), vehicle: saline with Tween-80

Measured: T/C

C[C@]1(O)CC[C@H]2[C@@H]3CCC4=CC(=O)CC[C@]4(C)[C@@]3(Cl)[C@@H](O)C[C@@]21C
inactive: dose: 100.0 mg/kg/injection, schedule: Q01DX009 (ip), vehicle: saline sonified 100 % of control | [1] 95 % of control | dose: 200.0 mg/kg/injection, schedule: Q01DX009 (ip), vehicle: saline sonified 100 % of control | [2] 100 % of control | dose: 400.0 mg/kg/injection, schedule: Q01DX009 (ip), vehicle: saline sonified 100 % of control | [3] 100 % of control

O=C(Nc1ccc(Cl)c(Cl)c1)O/N=C/c1ccccn1
inactive: [1] 100 % of control | [2] 90 % of control | [3] 95 % of control

OCC1(O)CCC1
inactive: dose: 75.0 mg/kg/injection, schedule: Q01DX009 (ip), vehicle: saline 95 % of control | [4] 96 % of control | dose: 150.0 mg/kg/injection, schedule: Q01DX009 (ip), vehicle: saline 104 % of control | [5] 103 % of control | dose: 300.0 mg/kg/injection, schedule: Q01DX009 (ip), vehicle: saline 109 % of control | [6] 100 % of control

Clc1cccc(N2CN(c3cccc(Cl)c3)CN(c3cccc(Cl)c3)C2)c1
inactive: dose: 100.0 mg/kg/injection, schedule: Q01DX001 (ip), vehicle: saline with Tween-80 90 % of control | [7] 87 % of control | [8] 91 % of control

NNc1nncc2ccccc12
inactive: dose: 6.25 mg/kg/injection, schedule: Q04DX003 (ip), vehicle: saline 90 % of control | dose: 12.5 mg/kg/injection, schedule: Q04DX003 (ip), vehicle: saline 90 % of control | [9] 109 % of control | dose: 25.0 mg/kg/injection, schedule: Q04DX003 (ip), vehicle: saline 113 % of control | [10] 90 % of control | [4] 100 % of control

c1cc[c]([Sb]([c]2ccccc2)[c]2ccccc2)cc1
inactive: dose: 20.0 mg/kg/injection, schedule: Q04DX003 (ip), vehicle: saline with Tween-80 120 % of control

C=C1C(=O)O[C@H]2[C@H]1[C@H](OC(=O)/C(C)=C\C)CC(=C)[C@@H]1[C@H](O)[C@H]3O[C@@]3(C)[C@@]12O
inactive: dose: 5.0 mg/kg/injection, schedule: Q01DX010 (ip), vehicle: carboxymethylcellulose (CMC) 104 % of control | dose: 10.0 mg/kg/injection, schedule: Q01DX010 (ip), vehicle: carboxymethylcellulose (CMC) 104 % of control | dose: 20.0 mg/kg/injection, schedule: Q01DX010 (ip), vehicle: carboxymethylcellulose (CMC) 113 % of control

COC1C(O)=C2C(=O)OC(C)(O)/C=C/C=C\C=C/C=C/C(c3ccccc3)NC(=O)/C=C/C=C/C=C/C=C/C2(C)C1O (stereo not given)
inactive: dose: 0.78 mg/kg/injection, schedule: Q01DX009 (ip), vehicle: Klucel (hydroxypropylcellulose) (HPC) 88 % of control | dose: 1.56 mg/kg/injection, schedule: Q01DX009 (ip), vehicle: Klucel (hydroxypropylcellulose) (HPC) 107 % of control | dose: 3.12 mg/kg/injection, schedule: Q01DX009 (ip), vehicle: Klucel (hydroxypropylcellulose) (HPC) 107 % of control

NC1=NC(=O)/C(=C/c2ccccc2)S1
inactive: [10] 90 % of control | dose: 100.0 mg/kg/injection, schedule: Q01DX009 (ip), vehicle: saline 100 % of control | dose: 200.0 mg/kg/injection, schedule: Q01DX009 (ip), vehicle: saline 100 % of control

CN(C)CCOc1cccc(OCCN(C)C)n1
inactive: [11] 100 % of control | dose: 25.0 mg/kg/injection, schedule: Q04DX003 (ip), vehicle: saline with Tween-80 87 % of control | [12] 95 % of control | dose: 50.0 mg/kg/injection, schedule: Q04DX003 (ip), vehicle: saline with Tween-80 91 % of control

ClCC(Cl)CN1CCCCC1 (stereo not given)
inactive: [13] 90 % of control | [9] 86 % of control | [10] 104 % of control

CC(=O)Nc1c(C)cc(C)cc1C
inactive: dose: 100.0 mg/kg/injection, schedule: Q04DX003 (ip), vehicle: Klucel (hydroxypropylcellulose) (HPC) 104 % of control | dose: 200.0 mg/kg/injection, schedule: Q04DX003 (ip), vehicle: Klucel (hydroxypropylcellulose) (HPC) 100 % of control | dose: 400.0 mg/kg/injection, schedule: Q04DX003 (ip), vehicle: Klucel (hydroxypropylcellulose) (HPC) 118 % of control

O=C(CN1CCCCC1)Nc1ccc(Br)cc1
inactive: [12] 96 % of control | [14] 104 % of control | [15] 112 % of control

O=S(=O)(O)CCBr
inactive: dose: 265.0 mg/kg/injection, schedule: Q01DX001 (ip), vehicle: saline 90 % of control | dose: 267.0 mg/kg/injection, schedule: Q01DX001 (ip), vehicle: saline 100 % of control | dose: 400.0 mg/kg/injection, schedule: Q01DX001 (ip), vehicle: saline 86 % of control and 90 % of control

Nc1nc2c(ncn2C2OC(CO)C(O)C2N)c(=O)[nH]1 (stereo not given)
inactive: dose: 3.12 mg/kg/injection, schedule: Q01DX009 (ip), vehicle: saline 111 % of control | dose: 6.25 mg/kg/injection, schedule: Q01DX009 (ip), vehicle: saline 111 % of control and 124 % of control | [13] 102 % of control and 117 % of control | [9] 93 % of control and 111 % of control | [10] 108 % of control | [1] 109 % of control | [3] 100 % of control

CCCC(Nc1nccs1)Nc1nccs1
inactive: [12] 107 % of control | [14] 101 % of control | [15] 101 % of control

O=C(Nc1ccccc1C(F)(F)F)Nc1cccc2ccccc12
inactive: [7] 90 % of control | [8] 86 % of control

NC(=O)CC(NC(=O)OCc1ccccc1)c1nn[nH]n1 (stereo not given)
inactive: [14] 90 % of control | [15] 100 % of control | dose: 400.0 mg/kg/injection, schedule: Q01DX009 (ip), vehicle: saline with Tween-80 95 % of control

CCCCCCCCC(=O)Nc1ncnc2n[nH]nc12
inactive: dose: 6.25 mg/kg/injection, schedule: Q01DX009 (ip), vehicle: saline with Tween-80 87 % of control | dose: 12.5 mg/kg/injection, schedule: Q01DX009 (ip), vehicle: saline with Tween-80 90 % of control | [11] 102 % of control | [12] 109 % of control

CCOC(=O)CCOCOCCC(=O)OCC
inactive: [4] 100 % of control | [5] 95 % of control | [6] 95 % of control

COc1ccc2c(c1OC)CCN1C3=C(CC4(CC3)OCCO4)C(=O)CC21 (stereo not given)
inactive: dose: 100.0 mg/kg/injection, schedule: Q04DX003 (ip), vehicle: saline sonified 105 % of control | dose: 200.0 mg/kg/injection, schedule: Q04DX003 (ip), vehicle: saline sonified 100 % of control | dose: 400.0 mg/kg/injection, schedule: Q04DX003 (ip), vehicle: saline sonified 90 % of control
